Laboratory results published in ChEMBL document CHEMBL3991601, “The target landscape of clinical kinase drugs” (Science, 2017).
Active and inactive are the calls of the source.

What was measured:
[1] = molecular target: T1, Calcium/calmodulin-dependent protein kinase type IV (Homo sapiens, UniProt Q16566)
T1 sequence (Q16566 whole entry): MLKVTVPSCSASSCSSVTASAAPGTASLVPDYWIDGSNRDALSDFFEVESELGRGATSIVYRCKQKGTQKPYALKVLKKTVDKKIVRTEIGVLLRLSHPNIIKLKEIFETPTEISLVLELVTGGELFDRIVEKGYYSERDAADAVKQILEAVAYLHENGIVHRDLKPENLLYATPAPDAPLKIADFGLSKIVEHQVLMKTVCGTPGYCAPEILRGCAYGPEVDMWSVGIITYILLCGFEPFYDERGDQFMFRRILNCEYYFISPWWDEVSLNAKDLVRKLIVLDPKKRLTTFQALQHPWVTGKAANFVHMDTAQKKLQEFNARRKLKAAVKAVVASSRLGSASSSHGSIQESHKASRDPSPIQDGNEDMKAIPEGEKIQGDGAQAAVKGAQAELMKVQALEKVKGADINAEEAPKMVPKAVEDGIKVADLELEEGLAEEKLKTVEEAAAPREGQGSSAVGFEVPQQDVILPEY

[2] = molecular target: T2, Dual specificity mitogen-activated protein kinase kinase 5 (Homo sapiens, UniProt Q13163)
T2 sequence (Q13163 whole entry): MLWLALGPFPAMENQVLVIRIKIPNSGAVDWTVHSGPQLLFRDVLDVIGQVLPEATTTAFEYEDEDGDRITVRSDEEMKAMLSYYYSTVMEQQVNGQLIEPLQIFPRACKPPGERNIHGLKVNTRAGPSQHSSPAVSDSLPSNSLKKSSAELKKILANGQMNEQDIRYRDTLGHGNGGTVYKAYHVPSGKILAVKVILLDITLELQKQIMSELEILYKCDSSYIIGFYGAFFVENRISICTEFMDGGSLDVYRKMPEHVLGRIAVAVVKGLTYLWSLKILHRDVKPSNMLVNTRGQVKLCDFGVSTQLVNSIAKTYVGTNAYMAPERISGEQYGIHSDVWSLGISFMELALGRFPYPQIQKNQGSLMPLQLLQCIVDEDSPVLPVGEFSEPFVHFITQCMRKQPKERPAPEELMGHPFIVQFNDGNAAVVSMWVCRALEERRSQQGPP

[3] = molecular target: T3, MAP kinase-activated protein kinase 5 (Homo sapiens, UniProt Q8IW41)
T3 sequence (Q8IW41 whole entry): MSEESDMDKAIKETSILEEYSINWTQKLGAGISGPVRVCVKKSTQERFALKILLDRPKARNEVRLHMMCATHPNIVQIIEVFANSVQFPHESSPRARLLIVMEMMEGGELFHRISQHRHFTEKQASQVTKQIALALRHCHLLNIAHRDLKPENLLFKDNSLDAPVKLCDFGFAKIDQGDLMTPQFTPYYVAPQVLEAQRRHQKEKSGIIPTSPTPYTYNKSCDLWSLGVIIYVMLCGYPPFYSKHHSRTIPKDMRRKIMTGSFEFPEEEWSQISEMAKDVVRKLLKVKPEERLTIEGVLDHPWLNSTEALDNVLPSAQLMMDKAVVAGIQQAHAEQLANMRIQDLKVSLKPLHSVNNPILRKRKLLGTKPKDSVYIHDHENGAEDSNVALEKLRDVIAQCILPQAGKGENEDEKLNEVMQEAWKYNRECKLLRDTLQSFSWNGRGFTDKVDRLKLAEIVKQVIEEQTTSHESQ

[4] = molecular target: Non-receptor tyrosine-protein kinase TYK2 (Homo sapiens, UniProt P29597)
[5] = molecular target: Protein kinase C beta type (Homo sapiens, UniProt P05771)
[6] = molecular target: T4, Serine/threonine-protein kinase Nek2 (Homo sapiens, UniProt P51955)
T4 sequence (P51955 whole entry): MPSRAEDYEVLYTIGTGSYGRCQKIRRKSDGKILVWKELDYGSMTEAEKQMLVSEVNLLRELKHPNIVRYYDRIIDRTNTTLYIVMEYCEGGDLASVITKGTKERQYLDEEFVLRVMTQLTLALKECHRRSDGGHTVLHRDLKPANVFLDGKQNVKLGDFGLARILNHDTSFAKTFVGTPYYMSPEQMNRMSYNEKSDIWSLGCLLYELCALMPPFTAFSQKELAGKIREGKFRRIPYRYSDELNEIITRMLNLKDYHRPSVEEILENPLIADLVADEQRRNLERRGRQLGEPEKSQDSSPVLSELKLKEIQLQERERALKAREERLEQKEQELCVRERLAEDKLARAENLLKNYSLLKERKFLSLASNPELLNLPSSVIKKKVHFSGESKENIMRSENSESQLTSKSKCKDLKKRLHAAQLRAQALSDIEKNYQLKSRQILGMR
Also: in the data inactive means no Kd found up to 30 µM.

Protein kinase C beta type, sequence (P05771 whole entry): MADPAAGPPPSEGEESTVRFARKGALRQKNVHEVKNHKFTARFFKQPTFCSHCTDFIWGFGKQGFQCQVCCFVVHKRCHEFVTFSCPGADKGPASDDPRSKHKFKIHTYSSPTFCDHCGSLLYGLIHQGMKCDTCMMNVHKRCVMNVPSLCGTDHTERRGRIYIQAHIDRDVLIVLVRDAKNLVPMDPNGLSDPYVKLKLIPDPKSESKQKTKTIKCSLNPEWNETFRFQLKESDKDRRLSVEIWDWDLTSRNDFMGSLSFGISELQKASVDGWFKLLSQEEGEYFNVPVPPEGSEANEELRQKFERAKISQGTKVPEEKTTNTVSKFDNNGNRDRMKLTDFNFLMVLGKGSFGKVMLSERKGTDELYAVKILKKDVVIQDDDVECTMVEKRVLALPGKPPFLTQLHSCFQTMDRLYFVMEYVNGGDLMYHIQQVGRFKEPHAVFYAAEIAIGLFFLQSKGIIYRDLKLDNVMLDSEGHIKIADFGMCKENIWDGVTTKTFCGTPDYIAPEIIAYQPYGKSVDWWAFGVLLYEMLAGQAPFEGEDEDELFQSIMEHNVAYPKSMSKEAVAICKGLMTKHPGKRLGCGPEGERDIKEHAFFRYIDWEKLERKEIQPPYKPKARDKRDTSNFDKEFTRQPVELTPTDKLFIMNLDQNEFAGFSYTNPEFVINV
Non-receptor tyrosine-protein kinase TYK2, sequence (P29597 whole entry): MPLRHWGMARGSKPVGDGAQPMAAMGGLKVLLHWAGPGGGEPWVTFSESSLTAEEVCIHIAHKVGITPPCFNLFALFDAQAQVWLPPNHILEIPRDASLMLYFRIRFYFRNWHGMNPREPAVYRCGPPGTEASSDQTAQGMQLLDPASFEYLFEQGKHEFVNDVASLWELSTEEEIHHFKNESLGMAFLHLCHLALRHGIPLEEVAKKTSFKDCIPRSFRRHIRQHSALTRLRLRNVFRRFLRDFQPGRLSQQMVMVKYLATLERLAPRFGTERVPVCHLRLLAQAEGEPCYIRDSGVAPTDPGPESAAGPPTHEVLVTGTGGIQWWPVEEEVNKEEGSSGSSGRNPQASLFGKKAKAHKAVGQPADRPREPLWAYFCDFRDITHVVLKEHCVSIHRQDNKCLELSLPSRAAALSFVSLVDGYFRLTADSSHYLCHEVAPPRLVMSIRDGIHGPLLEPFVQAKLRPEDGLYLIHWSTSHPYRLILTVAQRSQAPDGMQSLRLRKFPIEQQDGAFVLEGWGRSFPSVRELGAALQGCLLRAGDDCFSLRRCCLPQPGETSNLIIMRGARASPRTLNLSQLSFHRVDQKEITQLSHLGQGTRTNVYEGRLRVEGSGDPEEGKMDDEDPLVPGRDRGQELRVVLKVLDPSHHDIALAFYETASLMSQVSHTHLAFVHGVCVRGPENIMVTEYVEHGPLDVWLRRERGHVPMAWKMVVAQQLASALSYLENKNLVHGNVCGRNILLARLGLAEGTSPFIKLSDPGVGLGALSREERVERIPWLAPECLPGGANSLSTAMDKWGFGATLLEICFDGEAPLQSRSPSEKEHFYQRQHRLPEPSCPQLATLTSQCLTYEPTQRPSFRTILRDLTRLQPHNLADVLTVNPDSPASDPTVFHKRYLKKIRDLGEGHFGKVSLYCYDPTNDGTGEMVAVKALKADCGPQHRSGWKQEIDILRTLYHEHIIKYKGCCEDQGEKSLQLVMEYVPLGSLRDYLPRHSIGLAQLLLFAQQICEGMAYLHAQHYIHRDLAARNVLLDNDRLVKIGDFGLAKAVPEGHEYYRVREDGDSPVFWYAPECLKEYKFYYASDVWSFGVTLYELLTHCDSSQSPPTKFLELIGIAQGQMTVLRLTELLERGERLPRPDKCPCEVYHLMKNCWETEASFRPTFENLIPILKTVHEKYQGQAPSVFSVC

Kd [1]: > 30 µM (inactive) | Kd [2]: > 30 µM (inactive) | Kd [3]: > 30 µM (inactive) | Kd [4]: > 30 µM (inactive) | Kd [5]: 4.32 µM (active) | Kd [6]: > 30 µM (inactive)
SMILES: CN1C/C=C/CCOc2cccc(c2)-c2ccnc(n2)Nc2cccc(c2)C1 [ZOTIRACICLIB]
